The results in this text go back to ChEMBL document CHEMBL1155009, “7-Aminopyrazolo[1,5-a]pyrimidines as potent multitargeted receptor tyrosine kinase inhibitors” (J Med Chem, 2008).

In series [1] the target is T1, Vascular endothelial growth factor receptor 2 (Homo sapiens, UniProt P35968).
Description: Inhibition of KDR by HTRF assay
Series [2] relates to Mus musculus. The experiment in a line: Inhibition of estradiol-induced uterine edema in BALB/c mouse at 10 mg/kg, po administered 30 mins prior to 17-beta-estradiol challenge after 2 hrs. The conditions noted are these: read-out: INH.
A short description of series [3]: AUC in CD1 mouse at 3 mg/kg, iv. Format: ADME, organism-based. The conditions noted are these: plasma. On the set-up: dose 3 mg/kg, route intravenous.
Series [4] in a line: Cmax in CD1 mouse at 10 mg/kg, po. Also on record: dose 10 mg/kg, route oral. Format: ADME, organism-based. The settings on record: in vivo.
In series [5] the target is T1, Vascular endothelial growth factor receptor 2. The experiment in a line: Inhibition of human KDR phosphorylation expressed in mouse NIH3T3 cells by ELISA. Format: cell-based.
The nature of series [6]: AUC in CD1 mouse at 10 mg/kg, po. Format: ADME, organism-based. Also on record: dose 10 mg/kg, route oral. The conditions noted are these: plasma.
The test system of series [7] is Mus musculus. The experiment in a line: Half life in CD1 mouse at 3 mg/kg, iv. Format: ADME, organism-based. Also on record: dose 3 mg/kg, route intravenous. The settings on record: in vivo.
In series [8] the test system is Mus musculus. The series is described as follows: Volume of distribution in CD1 mouse at 3 mg/kg, iv. On the set-up: dose 3 mg/kg, route intravenous. Format: ADME, organism-based. The conditions noted are these: in vivo.
Series [9] is described as follows: Oral bioavailability in CD1 mouse at 10 mg/kg. The conditions noted are these: in vivo. Format: ADME, organism-based.

pIC50: −log10 of the molar value.

T1 sequence (P35968 whole entry): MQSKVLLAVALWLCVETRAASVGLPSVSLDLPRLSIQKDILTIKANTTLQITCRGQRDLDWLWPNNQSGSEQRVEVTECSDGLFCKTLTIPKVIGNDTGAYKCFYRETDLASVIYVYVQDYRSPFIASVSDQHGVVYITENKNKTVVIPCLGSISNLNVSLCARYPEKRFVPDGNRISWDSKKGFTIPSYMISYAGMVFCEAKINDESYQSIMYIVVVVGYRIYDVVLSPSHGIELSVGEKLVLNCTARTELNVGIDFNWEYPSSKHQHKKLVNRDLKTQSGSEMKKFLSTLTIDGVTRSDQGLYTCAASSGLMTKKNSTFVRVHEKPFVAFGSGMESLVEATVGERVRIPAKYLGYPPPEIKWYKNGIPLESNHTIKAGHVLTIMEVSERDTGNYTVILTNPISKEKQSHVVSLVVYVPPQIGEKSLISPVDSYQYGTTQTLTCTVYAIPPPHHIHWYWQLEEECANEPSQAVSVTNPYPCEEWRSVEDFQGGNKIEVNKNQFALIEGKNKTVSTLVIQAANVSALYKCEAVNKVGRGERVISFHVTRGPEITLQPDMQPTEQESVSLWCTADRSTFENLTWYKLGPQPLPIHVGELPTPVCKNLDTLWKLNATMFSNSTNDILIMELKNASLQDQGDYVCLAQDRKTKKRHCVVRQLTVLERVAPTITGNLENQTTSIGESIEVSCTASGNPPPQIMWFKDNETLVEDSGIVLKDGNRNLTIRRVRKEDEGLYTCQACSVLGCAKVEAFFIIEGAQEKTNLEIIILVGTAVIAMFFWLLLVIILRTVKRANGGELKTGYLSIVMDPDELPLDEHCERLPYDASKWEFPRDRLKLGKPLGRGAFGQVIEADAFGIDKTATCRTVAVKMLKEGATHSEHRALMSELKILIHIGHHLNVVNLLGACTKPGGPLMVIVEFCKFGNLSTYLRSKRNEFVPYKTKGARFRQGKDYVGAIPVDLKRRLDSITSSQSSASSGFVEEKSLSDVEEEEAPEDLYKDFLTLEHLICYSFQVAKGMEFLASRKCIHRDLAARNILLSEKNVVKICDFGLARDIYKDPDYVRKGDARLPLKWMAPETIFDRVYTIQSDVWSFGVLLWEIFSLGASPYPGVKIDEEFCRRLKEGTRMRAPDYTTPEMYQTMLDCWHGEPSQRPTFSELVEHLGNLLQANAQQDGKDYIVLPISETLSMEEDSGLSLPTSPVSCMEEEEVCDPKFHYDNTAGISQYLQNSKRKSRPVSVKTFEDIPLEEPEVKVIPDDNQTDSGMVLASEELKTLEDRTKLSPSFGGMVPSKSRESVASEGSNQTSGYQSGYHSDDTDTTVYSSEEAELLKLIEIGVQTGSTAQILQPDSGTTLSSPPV

Take `Cc1ccc(F)c(NC(=O)Nc2ccc(-c3cnc4ccnn4c3N)cc2)c1`: in series [1], the negative logarithm of the IC50 (pIC50) is 7.13.

`COc1ccc(-c2cnc3c(-c4ccsc4)cnn3c2N)cc1` had a pIC50 in [1] of 5.21. Still for that read-out and setting: as for `Cc1cccc(NC(=O)Nc2ccc(-c3cnc4c(C(=O)O)cnn4c3N)cc2)c1`, the figure is 5.70; as for `CNC(=O)c1cnn2c(N)c(-c3ccc(NC(=O)Nc4cccc(C)c4)cc3)cnc12`, 7.00; as for `Cc1cccc(NC(=O)Nc2ccc(-c3cnc4c(Br)cnn4c3)cc2)c1`, below 4.90. The same measure, in the same setting: for `Cc1cccc(NC(=O)Nc2ccc(-c3cnc4c(C#N)cnn4c3N)cc2)c1` the value was 6.03; for `COc1ccc(-c2cnc3c(Br)cnn3c2N)cc1`, below 4.90; for `Nc1c(-c2ccc(NC(=O)Nc3cccc(Cl)c3)cc2)cnc2ccnn12`, 7.36.

As to `Cn1cc(-c2ccn3c(N)c(-c4ccc(NC(=O)Nc5cc(C(F)(F)F)ccc5F)cc4)cnc23)cn1`, the inhibition in vivo at 10 mg/kg in series [2] came to 45%.

As for `Cn1cc(-c2ccn3c(N)c(-c4ccc(NC(=O)Nc5ccc(F)c(C(F)(F)F)c5)cc4)cnc23)cn1`, the inhibition in vivo at 10 mg/kg in [2] was below 15%. In [1], `Cc1cccc(NC(=O)Nc2ccc(-c3cnc4cc(C)nn4c3N)cc2)c1` had a pIC50 of 5.46. The same measure, in the same setting: as for `Nc1c(-c2ccc(NC(=O)Nc3ccccc3)cc2)cnc2c(Br)cnn12`, the figure is 5.80; as for `Cc1ccc(NC(=O)Nc2ccc(-c3cnc4c(Br)cnn4c3N)cc2)cc1`, 6.09; as for `Nc1c(-c2ccc(NC(=O)c3ccccc3)cc2)cnc2c(Br)cnn12`, below 4.90. With `Cc1cccc(NC(=S)Nc2ccc(-c3cnc4ccnn4c3N)cc2)c1`, the negative logarithm of the IC50 (pIC50) in [1] is 5.00.

`Cc1cccc(NC(=O)Nc2ccc(-c3cnc4c(C(=O)N5CCN(C)CC5)cnn4c3N)cc2)c1` showed a pIC50 in series [1] of 6.10. Same read-out and setting: as for `Nc1ccc(-c2cnc3c(Br)cnn3c2N)cc1`, the figure is below 4.90; as for `Cc1cccc(NC(=O)Nc2cccc(-c3cnc4ccnn4c3N)c2)c1`, 5.18. Still for that read-out and setting: for `Nc1c(-c2ccccc2)cnc2c(Br)cnn12` the value was below 4.90. Take `Cn1cc(-c2ccn3c(N)c(-c4ccc(NC(=O)Nc5cccc(Cl)c5)cc4)cnc23)cn1`: the inhibition in vivo at 10 mg/kg in [2] was 27%.

With `Cc1cccc(NC(=O)Nc2ccc(-c3cnc4cc(-c5ccccc5)nn4c3N)cc2)c1`, the pIC50 in series [1] is below 4.90.

`Cc1ccccc1NC(=O)Nc1ccc(-c2cnc3c(Br)cnn3c2N)cc1`: in [1], the pIC50 was below 4.90. `Cc1cccc(NC(=O)Nc2ccc(-c3cnc4c(-c5cnn(C)c5)cnn4c3N)cc2)c1`: the AUC in [3] is 1800 ng·h/mL; in series [6], 810 ng·h/mL. The highest level in series [4] (Cmax) was 360 nM. The inhibition in vivo at 10 mg/kg in series [2] was 49%. The negative-log IC50 (pIC50) was 9.15 in series [5] and 8.40 in series [1]. This molecule also had a t1/2 in series [7] of 15 min. The same molecule returned a distribution volume (Vd) in [8] of 1.4 L/kg. The molecule also registered a bioavailability in series [9] of 14%. For the molecule `CCN(CC)CCNC(=O)c1cnn2c(N)c(-c3ccc(NC(=O)Nc4cccc(C)c4)cc3)cnc12`, the negative-log IC50 (pIC50) in series [1] was 6.30.
